Assay results published in patent publication US20240218019A1, “METHODS AND COMPOSITIONS COMPRISING MHC CLASS I PEPTIDES” (BOARD OF REGENTS, THE UNIVERSITY OF TEXAS SYSTEM, priority 2021, published 2024).
Entries after “also recorded” stand apart in the source; their conditions may differ.

Tested on: healthy donor PBMCs
Assay: IFNγ ELISpot assay with peptide-stimulated healthy donor PBMCs
Assay type: cell-based, human
Procedure: FIG. 10A-D. In vitro validation of predicted neoAgs immunogenicity using ELISpot IFNy assay. A) Schematic of peptide pool, stimulation, and cell culture workflow for ELISpot assays. PBMCs were exposed with the individual peptides from the immunogenic pools in the presence of IL-7 for 3 d, followed by expansion of neoAg-specific T cells in the presence of IL-2. On day 13, expanded cells (10^5 cells per well) were plated onto 96-well ELISpot plate coated with an IFNγ antibody and re-stimulated with the respective peptide for 24 h. IFNy secreting cells were analyzed as spot-forming units (SFUs), and the inventors chose ≥15 SFU produced by peptide stimulated cells over DMSO control cells as an indicator of the peptide immunogenicity. B) Quantification of IFNγ-secreting cells (SFU) obtained from ELISpot assay of 12 neoAg-stimulated PBMCs. ConcA and DMSO served as positive and negative controls. […] C) Selection of 110 predicted MHC-I neoAgs from 3 different categories and percentage of immunogenicity in vitro validation. […] “Most Immunogenic” refers to neoAgs selected from the top 100 prediction list of Most Immunogenic MHC-I neoAgs. “Most recurrent” refers to neoAgs selected from the top 100 prediction list of Most Recurrent MHC-I neoAgs. “Others” refers neoAgs that were predicted to have low immunogenicity and no recurrency. A total of 44 MHC-II neoAgs from 2 different categories were tested. […] “Most Immunogenic” refers to neoAgs selected from the top 100 prediction list of Most Immunogenic MHC-II neoAgs. “Most recurrent” refers to neoAgs selected from the top 100 prediction list of Most Recurrent MHC-II neoAgs. D) pMHC-pentamer staining. Expanded Pan-T cells from the healthy human donor were isolated and stained with WDTC1 neoAg peptide/A*02:01 Pentameric complexes and PerCP-conjugated CD8 antibody followed by flow cytometry analysis. Pan T-cells from healthy human donor PBMC (HLA-A*02:01) were isolated using negative magnetic selection. Isolated Pan T cells were stimulated and expanded with Opto-antigen presenting beads conjugated with WDTC1 neoAg-peptide. Viable Pan-T cells were gated based on FSC and SSC scatter and SYTOX Blue dead cells staining after doublet-exclusion. Flow cytometric plots representing CD8 positive (x-axis) and PE-biotin-pMHC-pentamer positive (y-axis) cells; unstained, unstimulated, and WDTC1 Opto-antigen presenting beads stimulated cells (left to right). The percentage of live CD8+ cells and CD8/WDTC1 neoAg-loaded MHC pentamer positive cells are shown.
FIG. 19A-B. In vitro validation of the pooled predicted neoAgs immunogenicity using ELISpot IFNγ assay. A) Schematic of peptide pool, stimulation, and cell culture workflow for ELISpot assays. All 154 peptides were grouped into 15 peptide pools to stimulate PBMCs from 3 healthy human donors as shown in the illustrations. IFNy secreting cells were analyzed as spot-forming units (SFUs), indicative of immunogenicity. B) Quantification of IFNγ-secreting cells (SFU) obtained from ELISpot assay. Pools 2, 3, 5, 6, 9, and 12 produced at least 15 or higher SFU/10^5 cells from two different PBMCs. […] ConcA and DMSO served as positive and negative controls.
Healthy donor PBMCs were stimulated with 15 peptide pools (Supplementary Table 13) to expand the neoAg-specific CD8^+ T-cells followed by quantitative ELISpot assays (FIG. 19A) to measure immunogenicity. […] To ascertain the immunogenicity of individual peptides within each immunogenic pool. a deconvolution protocol (see Methods) was implemented (FIG. 10A). […] Three percent of MHC-I neoAgs not predicted to be highly immunogenic or recurrent (Others). 5% of the top 100 most immunogenic MHC-II predicted neoags, and 6% of the top 100 most recurrent MHC-II predicted neoags elicited an immunogenic response as assessed by ELISpot assays. Additionally. 18% of all of these elispot-reactive neoags were also predicted from the validation set (FIG. 9C). […]

[1] = IFNγ ELISpot, healthy donor PBMCs
[2] = IFNγ ELISpot, only peptides marked Tested
[3] = IFNγ ELISpot, peptide-stimulated healthy donor PBMCs, peptides grouped in 15 pools
[4] = IFNγ ELISpot, peptide-stimulated healthy donor PBMCs
[5] = IFNγ secretion in healthy donor PBMCs vs unexposed control cells
[6] = IFNγ ELISpot, peptides marked Tested

240 (SINVLCVRASLIEKL) [compound 240] was tested, and the “ELISpot result (positive response) for peptides tested with ELISpot” value [1] was “No” and the Elispot reactive [2] was “No”.

In the case of RFCPASCSGCY, the Elispot reactive [3] is reported as “yes”.

LKLCSKVSF [compound 132] was tested, and the “ELISPOT result (positive Yes/No) for peptides marked Tested” value (“ELISPOT result (positive Yes/No)” below) [4] was “No”.

For NMIQVLMSV [compound 49], the “ELISPOT result for peptides marked Tested with ELISPOT (Yes/No)” value (from here on “ELISPOT result … (Yes/No)”) [4] was “No”.

For AGIGWGASY, the Elispot reactive [3] was “yes”.

SPPLHLCQPL [compound 95] was tested, and the “ELISPOT result (positive Yes/No)” value [4] was “No” and the “ELISPOT result … (Yes/No)” value [4] was “No”.

With SMAASPSPK [compound 179] the “ELISPOT result (positive Yes/No)” value [4] was “No”.

In the case of 222 (KTGLQLLRNHIEELK) [compound 222], the Elispot reactive [2] is reported as “No”.

In the case of WLPKMPPFV [compound 163], the “ELISPOT result (positive Yes/No)” value [4] is reported as “Yes” and the Elispot reactive [5] is reported as “Yes”.

With LSNVAPPAF the Elispot reactive [3] was “yes”.

APSLTPMHSL [compound 209] was tested, and the Elispot reactive (IFNγ ELISpot, peptide tested) was “No”.

RLYVPLYSSK [compound 37] was tested, and the Elispot reactive [2] was “Yes”, the “ELISPOT result (positive Yes/No)” value [4] was “Yes” and the Elispot reactive [5] was “Yes”.

For APREGAAATPL [compound 18], the Elispot reactive [2] was “No”.

With RVPAHASTSI the Elispot reactive [3] was “yes”.

In the case of SLWSSMPHGV [compound 23], the Elispot reactive [2] is reported as “Yes” and the Elispot reactive [5] is reported as “Yes”.

In the case of ILFFFSSK [compound 175], the “ELISPOT result (positive Yes/No)” value [4] is reported as “No”.

FLATSGIDPV [compound 44] was tested, and the “ELISPOT result … (Yes/No)” value [4] was “Yes”, the Elispot reactive [6] was “Yes” and the Elispot reactive [5] was “Yes”.

With SMMPPPPAL [compound 2] the Elispot reactive (IFNγ ELISpot, peptide tested) was “No”.

With FLAPCNFYL [compound 16] the Elispot reactive (IFNγ ELISpot, peptide tested) was “No”.

With 239 (LEVMLLNMGYRITGL) [compound 239] the Elispot reactive [2] was “No” and the Elispot reactive [6] was “No”.

In the case of LTFCTNATI [compound 200], the Elispot reactive (IFNγ ELISpot, peptide tested) is reported as “No”.

In the case of TPQDSRQVL [compound 117], the Elispot reactive [6] is reported as “No”.

In the case of RIPAVLRTEGEPLHT [compound 323], the Elispot reactive [6] is reported as “Yes” and the Elispot reactive [5] is reported as “Yes”.

In the case of RTLLVTCILY [compound 125], the Elispot reactive [6] is reported as “No”.

In the case of 223 (QKKLMLLRLNLRKMC) [compound 223], the “ELISpot result (positive response) for peptides tested with ELISpot” value [1] is reported as “No” and the Elispot reactive [2] is reported as “No”.

YMMDDLELI [compound 1] was tested, and the Elispot reactive [2] was “No”.

332 (GVRILKLCSKVSFRV) [compound 332] was tested, and the Elispot reactive [6] was “No”.

In the case of RLDKGNFAGA, the Elispot reactive [3] is reported as “yes”.

With SPAIPPRPL the Elispot reactive [3] was “yes”.

With 335 (KKSVLKAIEQADLLQ) [compound 335] the Elispot reactive [6] was “No”.

With RWMVLRNSWRAVARM the Elispot reactive [3] was “yes”.

In the case of VPTWSARLL [compound 203], the Elispot reactive (IFNγ ELISpot, peptide tested) is reported as “No”.

For HSWRFCTHIR [compound 154], the “ELISPOT result (positive Yes/No)” value [4] was “No”.

With KLSSVVPSV [compound 22] the Elispot reactive [2] was “No”.

With FLIDDNFKV [SEQ ID NO 10] the “ELISpot IFNγ reactivity (immunogenicity) of individual peptides” value (healthy donor PBMCs, compared to unexposed control cells, listed as TTLL10) was “most reactive (immunogenic); also recorded: immunogenic”.

In the case of VVHKKRGLF [compound 127], the Elispot reactive [6] is reported as “No”.

In the case of KPIAGRHTL [compound 8], the Elispot reactive (IFNγ ELISpot, peptide tested) is reported as “No”.

In the case of 325 (ILVALSWMGGLHSFY) [compound 325], the Elispot reactive [6] is reported as “No”.

In the case of 319 (PCASLLSTLSQPPPQ) [compound 319], the Elispot reactive [6] is reported as “No”.

KRAFIHTPR [compound 131] was tested, and the “ELISPOT result (positive Yes/No)” value [4] was “No”.

HPARHLCRL [compound 208] was tested, and the Elispot reactive (IFNγ ELISpot, peptide tested) was “No”.

In the case of RTRSAWGDW [compound 141], the “ELISPOT result (positive Yes/No)” value [4] is reported as “No”.

With TQLARFFPI the Elispot reactive [3] was “yes”.

For 250 (TVEMRRWWTLVMEWK) [compound 250], the Elispot reactive [6] was “No”.
